According to the supplement of paper PMC4862054:

Tested on: SK-BR-3
Assay: drug sensitivity score (DSS), CellTiter-Blue viability (DSS (AUC-based score)); higher = stronger viability inhibition; extreme values may be limits of the assay
Details: incubation time: 72 h
Procedure: (§1)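 DSRT with the CellTiter-Blue (resazurin reduction) viability readout, fluorescence 560/590 nm, 72 h incubation. Plates were normalised to DMSO and benzethonium chloride controls. DSS is computed from the area under the fitted dose-response curve (5 or 9 concentrations).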

Compound | drug sensitivity score
Clc1ccc(Nc2nnc(Cc3ccncc3)c3ccccc23)cc1 [Vatalanib] | 0
NCC(=O)CCC(=O)O [Aminolevulinic acid] | 0
CCN(CCCOc1ccc2c(Nc3cc(CC(=O)Nc4cccc(F)c4)[nH]n3)ncnc2c1)CCOP(=O)(O)O [Barasertib] | 0
CO[C@H]1/C=C\C=C(/C)C(=O)NC2=CC(=O)C(NCCN(C)C)=C(C[C@@H](C)C[C@H](OC)[C@H](O)[C@@H](C)/C=C(\C)[C@@H]1OC(N)=O)C2=O [Alvespimycin] | 20.9
NC(=O)Nc1cc(-c2cccc(F)c2)sc1C(=O)N[C@H]1CCCNC1 [AZD 7762] | 4.87

Tested on: HDQ-P1
Assay: as above
Details: incubation time: 72 h
Procedure: as §1

Compound | drug sensitivity score
Cn1c(CCCC(=O)O)nc2cc(N(CCCl)CCCl)ccc21 [Bendamustine] | 0
COc1cc2nccc(Oc3ccc(NC(=O)C4(C(=O)Nc5ccc(F)cc5)CC4)cc3)c2cc1OC [Cabozantinib] | 0
O=C1CCC(N2C(=O)c3ccccc3C2=O)C(=O)N1 (stereo not given) [Thalidomide] | 0
C=C(c1ccc(C(=O)O)cc1)c1cc2c(cc1C)C(C)(C)CCC2(C)C [Bexarotene] | 0
CCC1(c2ccc(N)cc2)CCC(=O)NC1=O (stereo not given) [Aminoglutethimide] | 0
Clc1ccc(Nc2nnc(Cc3ccncc3)c3ccccc23)cc1 [Vatalanib] | 0
NCC(=O)CCC(=O)O [Aminolevulinic acid] | 0
CCN(CCCOc1ccc2c(Nc3cc(CC(=O)Nc4cccc(F)c4)[nH]n3)ncnc2c1)CCOP(=O)(O)O [Barasertib] | 0
CO[C@H]1/C=C\C=C(/C)C(=O)NC2=CC(=O)C(NCCN(C)C)=C(C[C@@H](C)C[C@H](OC)[C@H](O)[C@@H](C)/C=C(\C)[C@@H]1OC(N)=O)C2=O [Alvespimycin] | 13.8
NC(=O)Nc1cc(-c2cccc(F)c2)sc1C(=O)N[C@H]1CCCNC1 [AZD 7762] | 3.34

Tested on: HCC1599
Assay: as above
Details: incubation time: 72 h
Procedure: as §1

Compound | drug sensitivity score
Cn1c(CCCC(=O)O)nc2cc(N(CCCl)CCCl)ccc21 [Bendamustine] | 0
COc1cc2nccc(Oc3ccc(NC(=O)C4(C(=O)Nc5ccc(F)cc5)CC4)cc3)c2cc1OC [Cabozantinib] | 0
O=C1CCC(N2C(=O)c3ccccc3C2=O)C(=O)N1 (stereo not given) [Thalidomide] | 0
C=C(c1ccc(C(=O)O)cc1)c1cc2c(cc1C)C(C)(C)CCC2(C)C [Bexarotene] | 0
CCC1(c2ccc(N)cc2)CCC(=O)NC1=O (stereo not given) [Aminoglutethimide] | 0
Clc1ccc(Nc2nnc(Cc3ccncc3)c3ccccc23)cc1 [Vatalanib] | 0
NCC(=O)CCC(=O)O [Aminolevulinic acid] | 0
CCN(CCCOc1ccc2c(Nc3cc(CC(=O)Nc4cccc(F)c4)[nH]n3)ncnc2c1)CCOP(=O)(O)O [Barasertib] | 0
CO[C@H]1/C=C\C=C(/C)C(=O)NC2=CC(=O)C(NCCN(C)C)=C(C[C@@H](C)C[C@H](OC)[C@H](O)[C@@H](C)/C=C(\C)[C@@H]1OC(N)=O)C2=O [Alvespimycin] | 10.5
NC(=O)Nc1cc(-c2cccc(F)c2)sc1C(=O)N[C@H]1CCCNC1 [AZD 7762] | 5.69

Tested on: HCC1937
Assay: as above
Details: incubation time: 72 h
Procedure: as §1

Compound | drug sensitivity score
Cn1c(CCCC(=O)O)nc2cc(N(CCCl)CCCl)ccc21 [Bendamustine] | 0
COc1cc2nccc(Oc3ccc(NC(=O)C4(C(=O)Nc5ccc(F)cc5)CC4)cc3)c2cc1OC [Cabozantinib] | 0
O=C1CCC(N2C(=O)c3ccccc3C2=O)C(=O)N1 (stereo not given) [Thalidomide] | 0
C=C(c1ccc(C(=O)O)cc1)c1cc2c(cc1C)C(C)(C)CCC2(C)C [Bexarotene] | 2.11
CCC1(c2ccc(N)cc2)CCC(=O)NC1=O (stereo not given) [Aminoglutethimide] | 0
Clc1ccc(Nc2nnc(Cc3ccncc3)c3ccccc23)cc1 [Vatalanib] | 0
NCC(=O)CCC(=O)O [Aminolevulinic acid] | 0
CCN(CCCOc1ccc2c(Nc3cc(CC(=O)Nc4cccc(F)c4)[nH]n3)ncnc2c1)CCOP(=O)(O)O [Barasertib] | 9.75
CO[C@H]1/C=C\C=C(/C)C(=O)NC2=CC(=O)C(NCCN(C)C)=C(C[C@@H](C)C[C@H](OC)[C@H](O)[C@@H](C)/C=C(\C)[C@@H]1OC(N)=O)C2=O [Alvespimycin] | 17.2
NC(=O)Nc1cc(-c2cccc(F)c2)sc1C(=O)N[C@H]1CCCNC1 [AZD 7762] | 2.04

Tested on: MDA-MB-453
Assay: as above
Details: incubation time: 72 h
Procedure: as §1

Compound | drug sensitivity score
Cn1c(CCCC(=O)O)nc2cc(N(CCCl)CCCl)ccc21 [Bendamustine] | 0
COc1cc2nccc(Oc3ccc(NC(=O)C4(C(=O)Nc5ccc(F)cc5)CC4)cc3)c2cc1OC [Cabozantinib] | 1.25
O=C1CCC(N2C(=O)c3ccccc3C2=O)C(=O)N1 (stereo not given) [Thalidomide] | 0
C=C(c1ccc(C(=O)O)cc1)c1cc2c(cc1C)C(C)(C)CCC2(C)C [Bexarotene] | 0
CCC1(c2ccc(N)cc2)CCC(=O)NC1=O (stereo not given) [Aminoglutethimide] | 0
Clc1ccc(Nc2nnc(Cc3ccncc3)c3ccccc23)cc1 [Vatalanib] | 0
NCC(=O)CCC(=O)O [Aminolevulinic acid] | 0
CCN(CCCOc1ccc2c(Nc3cc(CC(=O)Nc4cccc(F)c4)[nH]n3)ncnc2c1)CCOP(=O)(O)O [Barasertib] | 11.8
CO[C@H]1/C=C\C=C(/C)C(=O)NC2=CC(=O)C(NCCN(C)C)=C(C[C@@H](C)C[C@H](OC)[C@H](O)[C@@H](C)/C=C(\C)[C@@H]1OC(N)=O)C2=O [Alvespimycin] | 22.6
NC(=O)Nc1cc(-c2cccc(F)c2)sc1C(=O)N[C@H]1CCCNC1 [AZD 7762] | 5.94

Tested on: BT-474
Assay: as above
Details: incubation time: 72 h
Procedure: as §1

Compound | drug sensitivity score
Cn1c(CCCC(=O)O)nc2cc(N(CCCl)CCCl)ccc21 [Bendamustine] | 0
COc1cc2nccc(Oc3ccc(NC(=O)C4(C(=O)Nc5ccc(F)cc5)CC4)cc3)c2cc1OC [Cabozantinib] | 0
O=C1CCC(N2C(=O)c3ccccc3C2=O)C(=O)N1 (stereo not given) [Thalidomide] | 0
C=C(c1ccc(C(=O)O)cc1)c1cc2c(cc1C)C(C)(C)CCC2(C)C [Bexarotene] | 0
CCC1(c2ccc(N)cc2)CCC(=O)NC1=O (stereo not given) [Aminoglutethimide] | 0
Clc1ccc(Nc2nnc(Cc3ccncc3)c3ccccc23)cc1 [Vatalanib] | 0
NCC(=O)CCC(=O)O [Aminolevulinic acid] | 0
CCN(CCCOc1ccc2c(Nc3cc(CC(=O)Nc4cccc(F)c4)[nH]n3)ncnc2c1)CCOP(=O)(O)O [Barasertib] | 0
CO[C@H]1/C=C\C=C(/C)C(=O)NC2=CC(=O)C(NCCN(C)C)=C(C[C@@H](C)C[C@H](OC)[C@H](O)[C@@H](C)/C=C(\C)[C@@H]1OC(N)=O)C2=O [Alvespimycin] | 14.6
NC(=O)Nc1cc(-c2cccc(F)c2)sc1C(=O)N[C@H]1CCCNC1 [AZD 7762] | 0

Tested on: MDA-MB-436
Assay: as above
Details: incubation time: 72 h
Procedure: as §1

Compound | drug sensitivity score
Cn1c(CCCC(=O)O)nc2cc(N(CCCl)CCCl)ccc21 [Bendamustine] | 0
COc1cc2nccc(Oc3ccc(NC(=O)C4(C(=O)Nc5ccc(F)cc5)CC4)cc3)c2cc1OC [Cabozantinib] | 0
O=C1CCC(N2C(=O)c3ccccc3C2=O)C(=O)N1 (stereo not given) [Thalidomide] | 0
C=C(c1ccc(C(=O)O)cc1)c1cc2c(cc1C)C(C)(C)CCC2(C)C [Bexarotene] | 0
CCC1(c2ccc(N)cc2)CCC(=O)NC1=O (stereo not given) [Aminoglutethimide] | 0
Clc1ccc(Nc2nnc(Cc3ccncc3)c3ccccc23)cc1 [Vatalanib] | 0
NCC(=O)CCC(=O)O [Aminolevulinic acid] | 0
CCN(CCCOc1ccc2c(Nc3cc(CC(=O)Nc4cccc(F)c4)[nH]n3)ncnc2c1)CCOP(=O)(O)O [Barasertib] | 0
CO[C@H]1/C=C\C=C(/C)C(=O)NC2=CC(=O)C(NCCN(C)C)=C(C[C@@H](C)C[C@H](OC)[C@H](O)[C@@H](C)/C=C(\C)[C@@H]1OC(N)=O)C2=O [Alvespimycin] | 16.1
NC(=O)Nc1cc(-c2cccc(F)c2)sc1C(=O)N[C@H]1CCCNC1 [AZD 7762] | 5.44

Tested on: MDA-MB-468
Assay: as above
Details: incubation time: 72 h
Procedure: as §1

Compound | drug sensitivity score
Cn1c(CCCC(=O)O)nc2cc(N(CCCl)CCCl)ccc21 [Bendamustine] | 0
COc1cc2nccc(Oc3ccc(NC(=O)C4(C(=O)Nc5ccc(F)cc5)CC4)cc3)c2cc1OC [Cabozantinib] | 0
O=C1CCC(N2C(=O)c3ccccc3C2=O)C(=O)N1 (stereo not given) [Thalidomide] | 0
C=C(c1ccc(C(=O)O)cc1)c1cc2c(cc1C)C(C)(C)CCC2(C)C [Bexarotene] | 0
CCC1(c2ccc(N)cc2)CCC(=O)NC1=O (stereo not given) [Aminoglutethimide] | 0
Clc1ccc(Nc2nnc(Cc3ccncc3)c3ccccc23)cc1 [Vatalanib] | 0
NCC(=O)CCC(=O)O [Aminolevulinic acid] | 0
CCN(CCCOc1ccc2c(Nc3cc(CC(=O)Nc4cccc(F)c4)[nH]n3)ncnc2c1)CCOP(=O)(O)O [Barasertib] | 12.1
CO[C@H]1/C=C\C=C(/C)C(=O)NC2=CC(=O)C(NCCN(C)C)=C(C[C@@H](C)C[C@H](OC)[C@H](O)[C@@H](C)/C=C(\C)[C@@H]1OC(N)=O)C2=O [Alvespimycin] | 10.4
NC(=O)Nc1cc(-c2cccc(F)c2)sc1C(=O)N[C@H]1CCCNC1 [AZD 7762] | 2.52

Tested on: CAL-120
Assay: normalised viability (% of control), CellTiter-Blue; higher = more viable cells (about 100 = DMSO control)
Details: 10 nM; incubation time: 72 h
Procedure: (§2)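 DSRT, CellTiter-Blue viability, 72 h incubation. Signal is normalised to DMSO and benzethonium chloride controls. Value is the normalised response at dose 3.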

Compound | normalised viability [%]
COc1cc2nccc(Oc3ccc(NC(=O)C4(C(=O)Nc5ccc(F)cc5)CC4)cc3)c2cc1OC [Cabozantinib] | 80.7
CCN(CCCOc1ccc2c(Nc3cc(CC(=O)Nc4cccc(F)c4)[nH]n3)ncnc2c1)CCOP(=O)(O)O [Barasertib] | 88.1
CO[C@H]1/C=C\C=C(/C)C(=O)NC2=CC(=O)C(NCCN(C)C)=C(C[C@@H](C)C[C@H](OC)[C@H](O)[C@@H](C)/C=C(\C)[C@@H]1OC(N)=O)C2=O [Alvespimycin] | 86.3
NC(=O)Nc1cc(-c2cccc(F)c2)sc1C(=O)N[C@H]1CCCNC1 [AZD 7762] | 114

Same assay, conditions: 100 nM; incubation time: 72 h

Compound | normalised viability [%]
Cn1c(CCCC(=O)O)nc2cc(N(CCCl)CCCl)ccc21 [Bendamustine] | 88.2
O=C1CCC(N2C(=O)c3ccccc3C2=O)C(=O)N1 (stereo not given) [Thalidomide] | 105
C=C(c1ccc(C(=O)O)cc1)c1cc2c(cc1C)C(C)(C)CCC2(C)C [Bexarotene] | 104
CCC1(c2ccc(N)cc2)CCC(=O)NC1=O (stereo not given) [Aminoglutethimide] | 121
Clc1ccc(Nc2nnc(Cc3ccncc3)c3ccccc23)cc1 [Vatalanib] | 79.7
NCC(=O)CCC(=O)O [Aminolevulinic acid] | 99.7

Tested on: CAL-51
Assay: as above
Details: 1 nM; incubation time: 72 h
Procedure: as §2

Compound | normalised viability [%]
COc1cc2nccc(Oc3ccc(NC(=O)C4(C(=O)Nc5ccc(F)cc5)CC4)cc3)c2cc1OC [Cabozantinib] | 96.9
CCN(CCCOc1ccc2c(Nc3cc(CC(=O)Nc4cccc(F)c4)[nH]n3)ncnc2c1)CCOP(=O)(O)O [Barasertib] | 96
CO[C@H]1/C=C\C=C(/C)C(=O)NC2=CC(=O)C(NCCN(C)C)=C(C[C@@H](C)C[C@H](OC)[C@H](O)[C@@H](C)/C=C(\C)[C@@H]1OC(N)=O)C2=O [Alvespimycin] | 90
NC(=O)Nc1cc(-c2cccc(F)c2)sc1C(=O)N[C@H]1CCCNC1 [AZD 7762] | 100

Same assay, conditions: 10 nM; incubation time: 72 h

Compound | normalised viability [%]
Cn1c(CCCC(=O)O)nc2cc(N(CCCl)CCCl)ccc21 [Bendamustine] | 106
O=C1CCC(N2C(=O)c3ccccc3C2=O)C(=O)N1 (stereo not given) [Thalidomide] | 90.7
C=C(c1ccc(C(=O)O)cc1)c1cc2c(cc1C)C(C)(C)CCC2(C)C [Bexarotene] | 84.7
CCC1(c2ccc(N)cc2)CCC(=O)NC1=O (stereo not given) [Aminoglutethimide] | 93.5
Clc1ccc(Nc2nnc(Cc3ccncc3)c3ccccc23)cc1 [Vatalanib] | 101
NCC(=O)CCC(=O)O [Aminolevulinic acid] | 101

Tested on: BT-474
Assay: as above
Details: 10 nM; incubation time: 72 h
Procedure: as §2

Compound | normalised viability [%]
COc1cc2nccc(Oc3ccc(NC(=O)C4(C(=O)Nc5ccc(F)cc5)CC4)cc3)c2cc1OC [Cabozantinib] | 122
CCN(CCCOc1ccc2c(Nc3cc(CC(=O)Nc4cccc(F)c4)[nH]n3)ncnc2c1)CCOP(=O)(O)O [Barasertib] | 90.2
CO[C@H]1/C=C\C=C(/C)C(=O)NC2=CC(=O)C(NCCN(C)C)=C(C[C@@H](C)C[C@H](OC)[C@H](O)[C@@H](C)/C=C(\C)[C@@H]1OC(N)=O)C2=O [Alvespimycin] | 92.1
NC(=O)Nc1cc(-c2cccc(F)c2)sc1C(=O)N[C@H]1CCCNC1 [AZD 7762] | 124

Same assay, conditions: 100 nM; incubation time: 72 h

Compound | normalised viability [%]
Cn1c(CCCC(=O)O)nc2cc(N(CCCl)CCCl)ccc21 [Bendamustine] | 108
O=C1CCC(N2C(=O)c3ccccc3C2=O)C(=O)N1 (stereo not given) [Thalidomide] | 109
C=C(c1ccc(C(=O)O)cc1)c1cc2c(cc1C)C(C)(C)CCC2(C)C [Bexarotene] | 102
CCC1(c2ccc(N)cc2)CCC(=O)NC1=O (stereo not given) [Aminoglutethimide] | 112
Clc1ccc(Nc2nnc(Cc3ccncc3)c3ccccc23)cc1 [Vatalanib] | 100
NCC(=O)CCC(=O)O [Aminolevulinic acid] | 114
